The record followed here is ChEMBL document CHEMBL1132103, “Acylcarnitine analogues as topical, microbicidal spermicides” (1999).

The subject of assay [1] is Human immunodeficiency virus 1. Briefly: In vitro inhibition of HIV-1 (RF strain) using cell-free inactivation assay at concentration of 10 mg/mL. In kind it is functional, organism-based.
Assay [2] relates to Human immunodeficiency virus 1. Briefly: In vitro inhibition of HIV-1 (RF strain) using cell-free inactivation assay at concentration of 1.0 mg/mL. In kind it is functional, organism-based.
In assay [3] the test system is Human immunodeficiency virus 1. Briefly: In vitro inhibition of HIV-1 (RF strain) using cell-free inactivation assay at concentration of 0.032 mg/mL; NA: Not active. In kind it is functional, organism-based.
Assay [4] is filed under the species Homo sapiens. Kind of assay: In vitro spermicidal activity using spermicidal dilution at 7.6 +/- 0.4 mg/mL in the Sander-Cramer test. In kind it is functional. To be noted: read-out: MEC.
Assay [5] concerns Human immunodeficiency virus 1. Kind of assay: In vitro inhibition of HIV-1 (RF strain) using cell-free inactivation assay at concentration of 0.1 mg/mL; NA: Not active. The format is functional, organism-based.
A further assay has as its system Candida albicans. Briefly: Minimum inhibitory concentration required for growth inhibition of Candida albicans. In kind it is functional.
Assay [6] has as its system Human immunodeficiency virus 1. Kind of assay: In vitro inhibition of HIV-1 (RF strain) using cell-free inactivation assay at concentration of 0.32 mg/mL. In kind it is functional, organism-based.
For assay [7], the system named is Human immunodeficiency virus 1. Kind of assay: In vitro inhibition of HIV-1 (RF strain) using cell-free inactivation assay at concentration of 3.2 mg/mL. The format is functional, organism-based.
The species entered for assay [8] is Homo sapiens. Briefly: In vitro spermicidal activity using spermicidal dilution at 134.4 +/- 14.2 mg/mL in the Sander-Cramer test. The format is functional. Conditions: read-out: MEC.
In assay [9] the test system is Human immunodeficiency virus 1. Kind of assay: In vitro inhibition of HIV-1 (RF strain) using cell-free inactivation assay at concentration of 0.032 mg/mL. The format is functional, organism-based.
For assay [10], the system named is Human immunodeficiency virus 1. Briefly: In vitro inhibition of HIV-1 (RF strain) using cell-free inactivation assay at concentration of 0.1 mg/mL. The format is functional, organism-based.
For assay [11], the species on record is Homo sapiens. Kind of assay: In vitro spermicidal activity using spermicidal dilution at 102.4 +/- 13.5 mg/mL in the Sander-Cramer test. In kind it is functional. To be noted: read-out: MEC.
The species named for assay [12] is Homo sapiens. Kind of assay: In vitro spermicidal activity using spermicidal dilution at 27.2 +/- 2.3 mg/mL in the Sander-Cramer test. In kind it is functional. Conditions: read-out: MEC.
The species entered for assay [13] is Homo sapiens. Briefly: In vitro spermicidal activity using spermicidal dilution at 4.8 +/- 0.5 mg/mL in the Sander-Cramer test. The format is functional. Conditions: read-out: MEC.
The species entered for assay [14] is Homo sapiens. Briefly: In vitro spermicidal activity using spermicidal dilution at 48.0 +/-5.1 mg/mL in the Sander-Cramer test. The format is functional. To be noted: read-out: MEC.

Each structure is given as a SMILES string. Values after ≈ are worked out from the molar mass of the structure shown. Active and inactive are the calls of the source. The rule behind the calls is not given here.

Turning to `CCCCCCCCCCC[C@@]1(O)C[N+](C)(C)C[C@@H](CC(=O)[O-])O1`, the Activity is 4.7 in [1], 2 in [2], 0.8 in assay [6] and 2.7 in assay [7]. Also, the outcome in [3] and in assay [5] was inactive. The minimal effective concentration in the assay filed under Homo sapiens [4] is 1400 µg/mL. Moreover, the MIC in the assay with Candida albicans was above 100 µg/mL.

As for `CCCCCCCCCCCCCCC[C@@]1(O)C[N+](C)(C)C[C@@H](CC(=O)[O-])O1` [HEMIACYLCARNITINIUM], the minimal effective concentration in the assay filed under Homo sapiens [8] came to 109 µg/mL. The Activity is 0.3 in assay [9]; above 4 in assay [1]; 1.5 in [10]; 3.2 in assay [2]; 2.7 in assay [6]; 3.8 in [7]. In the assay on Candida albicans, the MIC stood at 2 µg/mL (≈ 5 µM).

Turning to `CCCCCCCCCCCCCC[C@@]1(O)C[N+](C)(C)C[C@@H](CC(=O)[O-])O1`, the Activity is 0.5 in assay [9]; above 4 in assay [1]; 1.5 in [10]; 3.5 in assay [2]; 2.8 in assay [6]; above 4 in assay [7]. Besides, the minimal effective concentration in the assay listed under Homo sapiens [11] came to 121 µg/mL. Also, in the assay with Candida albicans, it took 10 µg/mL (≈ 25.9 µM) to inhibit growth (MIC).

Consider `CCCCCCCCCCCC[C@@]1(O)C[N+](C)(C)C[C@@H](CC(=O)[O-])O1`, for which the Activity in assay [9] is 0; in [1], above 4; in assay [10], 0.3; in [2], 2.8; in assay [6], 2; in assay [7] it was above 3.5. Besides, the minimal effective concentration in the assay filed under Homo sapiens [12] was found to be 407 µg/mL. This compound also displayed an MIC against Candida albicans of 80 µg/mL (≈ 224 µM).

For the compound `CCCCCCCCCC[C@@]1(O)C[N+](C)(C)C[C@@H](CC(=O)[O-])O1`, the Activity in [1] is above 4; in [2] it was 1; in assay [6], 0.8; in assay [7], 2.8. The outcome in [3] and in [5] was inactive. In addition, in the assay listed under Homo sapiens [13], the minimal effective concentration is 2300 µg/mL. For the same compound, in the assay on Candida albicans, the MIC was above 100 µg/mL.

Regarding `CCCCCCCCCCCCC[C@@]1(O)C[N+](C)(C)C[C@@H](CC(=O)[O-])O1`, the minimal effective concentration in the assay filed under Homo sapiens [14] stood at 235 µg/mL. The Activity turned out to be 0.5 in assay [9]; 3.5 in [1]; 1.5 in assay [10]; 3.3 in assay [2]; 2.7 in assay [6]; 3.5 in [7]. This compound yielded an MIC in the assay with Candida albicans of 40 µg/mL (≈ 108 µM).
